# What was measured:
# m-calpain = biological target: T1, m-calpain (Rattus norvegicus, UniProt Q07009); test: Fluorimetric FRET-substrate assay of m-calpain inhibition; assay type: biochemical; settings: inhibitor 1 μM; 125 nM m-calpain; 1.3 μM (EDANS)-EPLFAERK-(DABCYL); 4 mM CaCl2; FIG. 1A
# T1 sequence (Q07009 1-700): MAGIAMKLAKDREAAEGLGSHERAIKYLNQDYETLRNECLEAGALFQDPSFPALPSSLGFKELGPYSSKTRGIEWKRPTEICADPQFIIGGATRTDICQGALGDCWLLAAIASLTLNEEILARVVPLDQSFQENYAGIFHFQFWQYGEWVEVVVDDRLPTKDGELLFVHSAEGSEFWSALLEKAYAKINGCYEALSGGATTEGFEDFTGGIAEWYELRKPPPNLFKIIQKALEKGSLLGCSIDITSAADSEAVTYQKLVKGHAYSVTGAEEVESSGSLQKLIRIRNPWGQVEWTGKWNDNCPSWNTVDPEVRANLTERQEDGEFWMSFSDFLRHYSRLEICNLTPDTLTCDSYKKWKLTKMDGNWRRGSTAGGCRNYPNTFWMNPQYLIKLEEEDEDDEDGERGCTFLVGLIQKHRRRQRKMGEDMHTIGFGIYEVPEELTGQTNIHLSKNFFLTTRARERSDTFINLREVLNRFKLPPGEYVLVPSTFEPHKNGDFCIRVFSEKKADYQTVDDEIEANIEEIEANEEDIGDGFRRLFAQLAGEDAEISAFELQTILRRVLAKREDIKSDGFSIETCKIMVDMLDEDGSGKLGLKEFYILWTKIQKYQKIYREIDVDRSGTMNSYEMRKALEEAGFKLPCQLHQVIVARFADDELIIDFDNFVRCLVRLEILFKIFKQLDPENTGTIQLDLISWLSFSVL
# T1 sequence (Q64537 87-270 partner limits assumed): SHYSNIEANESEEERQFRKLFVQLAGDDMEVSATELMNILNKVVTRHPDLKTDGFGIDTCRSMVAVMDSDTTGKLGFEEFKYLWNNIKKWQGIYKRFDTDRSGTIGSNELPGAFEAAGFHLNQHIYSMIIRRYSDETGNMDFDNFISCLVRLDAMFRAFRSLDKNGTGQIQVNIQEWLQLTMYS
# Protocol: (§1) FIG. 1 is a pair of graphs showing the inhibitory effect of Z-Leu-Abu-CONH—(CH2)3-adenin-9-yl, and Z-Leu-Abu-CONH—(CH2)3-(4-methylpiperazin-1-yl) on m-calpain (FIG. 1A) and μI-II (FIG. 1B). Duplicate assays were performed by adding 1.3 μM (EDANS)-EPLFAERK(SEQ ID NO:1)-(DABCYL) (A), 125 nM calpain (B), and 4 mM CaCl2 (C), then averaged to yield the plots shown. Autolytic inactivation of m-calpain, but not μI-II, was observed when no inhibitor was added (X). Immediately following addition of each inhibitor (D), the increase in fluorescence intensity was attenuated.
# (§2) Enzymatic activity was monitored in real-time using a 1.5 mL quartz cuvette and a Perkin-Elmer LS50-B Luminescence Spectrophotometer. Duplicate assays were performed with 1.3 μM (EDANS)-EPLFAERK(SEQ ID NO:1)-(DABCYL) and 125 nM μI-II or m-calpain in a buffer solution containing 50 mM HEPES-HCl (pH 7.7) and 10 mM DTT. The reaction was initiated 420 seconds after mixing by the addition of 4 mM CaCl2 and monitored at excitation and emission wavelengths of 335 nm and 500 nm, respectively. After a waiting period of 100 seconds, the inhibitor solution (either Z-Leu-Abu-CONH—(CH2)3-adenin-9-yl, or Z-Leu-Abu-CONH—(CH2)3-(4-methylpiperazin-1-yl) dissolved in DMSO) was added at a concentration of 1 μM (for the m-calpain assays) or 50 μM (for the μI-II assays). […]
# μI-II = μI-II (Rattus norvegicus, UniProt P97571); test: Fluorimetric FRET-substrate assay of μI-II inhibition; assay type: biochemical; settings: inhibitor 50 μM; 125 nM μI-II; 1.3 μM (EDANS)-EPLFAERK-(DABCYL); 4 mM CaCl2; FIG. 1B
# Protocol: as §1, §2
# calpain I = biological target: T2, calpain I (Homo sapiens, UniProt P07384); settings: literature statement; cited from earlier work
# T2 sequence (P07384 1-714): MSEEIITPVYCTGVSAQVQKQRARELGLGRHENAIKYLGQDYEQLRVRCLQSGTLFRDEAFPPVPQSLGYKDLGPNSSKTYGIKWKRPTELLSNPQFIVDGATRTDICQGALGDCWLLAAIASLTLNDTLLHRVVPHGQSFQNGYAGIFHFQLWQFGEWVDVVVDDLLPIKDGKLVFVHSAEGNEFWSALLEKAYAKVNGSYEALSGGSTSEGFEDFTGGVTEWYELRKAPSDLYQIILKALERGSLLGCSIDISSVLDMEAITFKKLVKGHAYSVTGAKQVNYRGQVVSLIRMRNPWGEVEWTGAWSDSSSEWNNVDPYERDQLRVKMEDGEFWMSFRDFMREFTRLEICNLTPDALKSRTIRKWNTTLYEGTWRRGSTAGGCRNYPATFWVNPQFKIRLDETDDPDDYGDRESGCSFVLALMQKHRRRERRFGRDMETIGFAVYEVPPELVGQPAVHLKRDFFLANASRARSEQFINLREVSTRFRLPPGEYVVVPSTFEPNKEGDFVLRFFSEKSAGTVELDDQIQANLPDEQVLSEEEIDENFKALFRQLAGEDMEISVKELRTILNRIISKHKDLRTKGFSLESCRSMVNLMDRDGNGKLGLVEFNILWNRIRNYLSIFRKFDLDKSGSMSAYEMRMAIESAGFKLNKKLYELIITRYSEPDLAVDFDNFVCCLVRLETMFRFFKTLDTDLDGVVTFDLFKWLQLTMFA
# T2 sequence (P04632 1-268 partner): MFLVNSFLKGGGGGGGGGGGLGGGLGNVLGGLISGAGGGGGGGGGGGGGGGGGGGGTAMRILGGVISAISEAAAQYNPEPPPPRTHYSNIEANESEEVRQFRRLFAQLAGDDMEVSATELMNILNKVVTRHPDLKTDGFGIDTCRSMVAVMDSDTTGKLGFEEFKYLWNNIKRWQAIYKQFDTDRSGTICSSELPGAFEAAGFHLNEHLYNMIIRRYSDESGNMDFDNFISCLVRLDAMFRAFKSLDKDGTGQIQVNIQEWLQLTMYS
# calpain II = settings: literature statement; cited from earlier work
# [1] = tested on: other cysteine proteases such as cathepsins; settings: literature statement; cited from earlier work
# Sequence of μI-II (P97571 55-354 limits assumed): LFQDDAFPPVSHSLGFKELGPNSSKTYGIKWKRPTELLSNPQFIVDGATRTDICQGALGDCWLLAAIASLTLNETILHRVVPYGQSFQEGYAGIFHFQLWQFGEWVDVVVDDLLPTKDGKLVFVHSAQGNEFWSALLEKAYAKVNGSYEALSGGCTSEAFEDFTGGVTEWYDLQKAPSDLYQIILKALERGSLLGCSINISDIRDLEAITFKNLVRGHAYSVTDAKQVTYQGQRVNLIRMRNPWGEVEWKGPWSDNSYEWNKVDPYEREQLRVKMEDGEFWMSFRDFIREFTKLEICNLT
Compound,attenuation of the increase in fluorescence intensity (cleavage of FRET substrate) by m-calpain (m-calpain),attenuation of the increase in fluorescence intensity (cleavage of FRET substrate) by μI-II (μI-II),inhibition of calpain I (calpain I),inhibition of calpain II (calpain II),inhibitory activity toward other cysteine proteases such as cathepsins [1]
"CCC(NC(=O)[C@H](CC(C)C)NC(=O)OCc1ccccc1)C(=O)C(=O)NCCCn1cnc2c(N)ncnc21 (stereo partly drawn) [Z-Leu-Abu-CONH—(CH2)3-adenin-9-yl, 3-(Benzyloxycarbonyl-L-leucylamino)-N-(3-(6-amino-9H-purin-9-yl)propyl)-2-oxopentanamide]",more distinct attenuation of fluorescence,more distinct attenuation of fluorescence,–,–,–
CCC(NC(=O)[C@H](CC(C)C)NC(=O)OCc1ccccc1)C(=O)C(=O)NCCCN1CCN(C)CC1 (stereo partly drawn) [3-(Benzyloxycarbonyl-L-leucylamino)-N-(3-(4-methylpiperazin-1-yl)propyl)-2-oxopentanamide],immediately attenuated,immediately attenuated,–,–,–
"CCC(NC(=O)[C@H](CC(C)C)NC(=O)OCc1ccccc1)C(=O)C(=O)NCCCN1CCOCC1 (stereo partly drawn) [AK295, Z-Leu-Abu-CONH—(CH2)3-4-morpholinyl]",–,–,potent transition-state inhibitor,potent transition-state inhibitor,some inhibitory activity

# Source: patent publication US8518885B2, “Heterocyclic peptide ketoamides” (Georgia Tech Research Corporation, priority 2008, dated 2013)
